The assay deals with MX-1 breast xenograft, intrarenal, nude mice, tumor weight. Put plainly: NCI In Vivo Anticancer Drug Screen. Data for tumor model Human Mammary Carcinoma MX-1 Xenograft (intrarenal inoculation) in NU/NU BALB/C (nude) mice. Particulars: endpoint: mean tumor weight change, higher = larger tumour. Put shortly:
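Compounds were given to mice carrying transplanted tumors, and tumor size or survival was measured. Each value is the treated-group measurement (T) divided by the vehicle-treated control-group measurement (C).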
In general terms: A xenograft is tissue or cells of one species grown in another, often human tumour cells in immunodeficient mice.

[1] abbreviates: dose: 75.0 mg/kg/injection, schedule: Q04DX003 (ip), vehicle: saline with Tween-80.
Setting [2] is: dose: 150.0 mg/kg/injection, schedule: Q04DX003 (ip), vehicle: saline with Tween-80.
Where [3] appears, read: dose: 300.0 mg/kg/injection, schedule: Q04DX003 (ip), vehicle: saline with Tween-80.
Setting [4] is: dose: 600.0 mg/kg/injection, schedule: Q04DX003 (ip), vehicle: saline with Tween-80.
Setting [5] is: dose: 300.0 mg/kg/injection, schedule: Q04DX003 (sc), vehicle: saline.
[6] abbreviates: dose: 600.0 mg/kg/injection, schedule: Q04DX003 (sc), vehicle: saline.
Setting [7] is: dose: 25.0 mg/kg/injection, schedule: Q04DX003 (ip), vehicle: saline.
Setting [8] is: dose: 50.0 mg/kg/injection, schedule: Q04DX003 (ip), vehicle: saline.
[9] abbreviates: dose: 200.0 mg/kg/injection, schedule: Q04DX003 (ip), vehicle: saline.

Values joined by “and” are separate entries in the source; they are usually repeats but may differ in a detail not shown here. Equal values may be shown once. Records with an inconclusive call do not appear.

Turning to `Nc1ccn(C2CC(N)C(CO)O2)c(=O)n1` (centres undefined), the T/C is, setting by setting: under setting [1], 77 % of control; under setting [2], 105 % of control; under setting [3], 74 % of control; under setting [4], 82 % of control.
For the compound `[Cl][Sn]([c]1ccccc1)[c]1ccccc1`, the T/C runs as follows: under setting [5], 104 % of control; under setting [6], 86 % of control; (dose: 1200.0 mg/kg/injection, schedule: Q04DX003 (sc), vehicle: saline) 55 % of control; (dose: 2400.0 mg/kg/injection, schedule: Q04DX003 (sc), vehicle: saline) 66 % of control.
As for `O=P1(N(CCCl)CCCl)NCCCO1` (centres undefined), the T/C runs as follows: (dose: 25.0 mg/kg/injection, schedule: Q01DX010 (sc), vehicle: saline) 3 % of control; under setting [7], 1 % of control and -23 % of control; (dose: 50.0 mg/kg/injection, schedule: Q01DX010 (sc), vehicle: saline) -11 % of control; under setting [8], -88 % of control and -100 % of control; (dose: 100.0 mg/kg/injection, schedule: Q04DX003 (sc), vehicle: saline) -95 % of control; under setting [9], -73 % of control.
Regarding `CCCCCCCCCCCCCCCCCCOCC(CO)OC` (centres undefined), the T/C is 117 % of control under setting [2]; 93 % of control under setting [3]; 81 % of control under setting [4]; 46 % of control (dose: 1200.0 mg/kg/injection, schedule: Q04DX003 (ip), vehicle: saline with Tween-80).
As for `NC(=S)c1ncn(C2OC(COC=O)C(OC=O)C2OC=O)c1NC=O` (centres undefined), the T/C reads like this: (dose: 50.0 mg/kg/injection, schedule: Q04DX003 (ip), vehicle: saline with Tween-80) 105 % of control; (dose: 100.0 mg/kg/injection, schedule: Q04DX003 (ip), vehicle: Klucel (hydroxypropylcellulose) (HPC)) 47 % of control; (dose: 100.0 mg/kg/injection, schedule: Q04DX003 (ip), vehicle: saline with Tween-80) 103 % of control; (dose: 200.0 mg/kg/injection, schedule: Q04DX003 (ip), vehicle: Klucel (hydroxypropylcellulose) (HPC)) 31 % of control; (dose: 200.0 mg/kg/injection, schedule: Q04DX003 (ip), vehicle: saline with Tween-80) 65 % of control; (dose: 400.0 mg/kg/injection, schedule: Q04DX003 (ip), vehicle: Klucel (hydroxypropylcellulose) (HPC)) 48 % of control. Moreover, under “dose: 400.0 mg/kg/injection, schedule: Q04DX003 (ip), vehicle: saline with Tween-80”, the T/C is 9 % of control.
For `COc1ccc2c(c1)-c1nn(CCCN(C)C)c3ccc([N+](=O)[O-])c(c13)N2`, the T/C was 66 % of control and 79 % of control (dose: 12.5 mg/kg/injection, schedule: Q04DX003 (ip), vehicle: water); 53 % of control and 56 % of control (dose: 25.0 mg/kg/injection, schedule: Q04DX003 (ip), vehicle: water); 19 % of control and 38 % of control and 41 % of control (dose: 50.0 mg/kg/injection, schedule: Q04DX003 (ip), vehicle: water); 13 % of control (dose: 100.0 mg/kg/injection, schedule: Q04DX003 (ip), vehicle: water).
For the compound `COC1/C=C/C=C(/C)Cc2cc(O)c(Cl)c(c2)N(C)C(=O)CC(OC(=O)C(C)C)C2(C)OC2C(C)C2CC1(O)NC(=O)O2` (centres undefined), the T/C reads like this: (dose: 1.0 mg/kg/injection, schedule: Q04DX003 (sc), vehicle: saline + alcohol) 70 % of control; (dose: 2.0 mg/kg/injection, schedule: Q04DX003 (sc), vehicle: saline + alcohol) 33 % of control; (dose: 4.0 mg/kg/injection, schedule: Q04DX003 (sc), vehicle: saline + alcohol) -47 % of control; (dose: 8.0 mg/kg/injection, schedule: Q04DX003 (sc), vehicle: saline + alcohol) -100 % of control.
For `Cc1ccc(S(=O)(=O)NC(=O)C2C(=O)CC3(CCCCC3)CC2=O)cc1`, the T/C is 81 % of control (dose: 300.0 mg/kg/injection, schedule: Q04DX003 (sc), vehicle: Klucel (hydroxypropylcellulose) (HPC)); 95 % of control (dose: 600.0 mg/kg/injection, schedule: Q04DX003 (sc), vehicle: Klucel (hydroxypropylcellulose) (HPC)); 121 % of control (dose: 1200.0 mg/kg/injection, schedule: Q04DX003 (sc), vehicle: Klucel (hydroxypropylcellulose) (HPC)); 117 % of control (dose: 2400.0 mg/kg/injection, schedule: Q04DX003 (sc), vehicle: Klucel (hydroxypropylcellulose) (HPC)).
`CCNC=O`: the T/C (dose: 200.0 mg/kg/injection, schedule: Q01DX010 (sc), vehicle: saline) is 85 % of control; the T/C (dose: 400.0 mg/kg/injection, schedule: Q01DX010 (sc), vehicle: saline) is 70 % of control; the T/C (dose: 800.0 mg/kg/injection, schedule: Q01DX010 (sc), vehicle: saline) was 27 % of control.
For the compound `COc1cc(C2c3cc4c(cc3[C@@H](OC3OC5CO[C@@H](C)OC5C(O)C3O)[C@H]3COC(=O)C23)OCO4)cc(OC)c1OC` (some centres undefined), the T/C is, setting by setting: under setting [7], 88 % of control; under setting [8], 84 % of control; (dose: 100.0 mg/kg/injection, schedule: Q04DX003 (ip), vehicle: saline) 55 % of control; under setting [9], 61 % of control; (dose: 400.0 mg/kg/injection, schedule: Q04DX003 (ip), vehicle: saline) 32 % of control.
For the compound `COC1C(OC(=O)/C=C/C=C/C=C/C=C/C(=O)O)CCC2(CO2)C1C1(C)OC1CC=C(C)C` (centres undefined), the T/C by setting is: (dose: 150.0 mg/kg/injection, schedule: Q04DX003 (sc), vehicle: saline) 102 % of control; under setting [5], 96 % of control; under setting [6], 62 % of control.
For the compound `COc1cccc2c1[C@H]1CO[C@H]3C4C[C@H](C(=O)O)C([C@@H](C2)N13)N4C` (some centres undefined), the T/C by setting is: (dose: 1.25 mg/kg/injection, schedule: Q04DX003 (ip), vehicle: other) 50 % of control; (dose: 2.5 mg/kg/injection, schedule: Q04DX003 (ip), vehicle: other) 32 % of control and 33 % of control; (dose: 5.0 mg/kg/injection, schedule: Q04DX003 (ip), vehicle: other) 16 % of control and 19 % of control; (dose: 7.5 mg/kg/injection, schedule: Q04DX003 (ip), vehicle: water) 9 % of control; (dose: 10.0 mg/kg/injection, schedule: Q04DX003 (ip), vehicle: other) 8 % of control and 9 % of control; (dose: 15.0 mg/kg/injection, schedule: Q04DX003 (ip), vehicle: water) 2 % of control. Besides, the T/C by setting is: (dose: 20.0 mg/kg/injection, schedule: Q04DX003 (ip), vehicle: other) 2 % of control; (dose: 30.0 mg/kg/injection, schedule: Q04DX003 (ip), vehicle: water) 2 % of control.
Regarding `Nc1ccc2ccc(N)cc2c1`, the T/C is, setting by setting: under setting [2], 75 % of control; under setting [3], 65 % of control.
As for `Cc1ccc2c(c1)C1(C)OC(C=CC1=O)O2` (centres undefined), the T/C (dose: 150.0 mg/kg/injection, schedule: Q04DX003 (ip), vehicle: Klucel (hydroxypropylcellulose) (HPC)) is 94 % of control.
Turning to `C[n+]1c(-c2ccc(/C=N/NC(=O)c3ccc(C(=O)N/N=C/c4ccc(-c5cn6ccccc6[n+]5C)cc4)cc3)cc2)cn2ccccc21`, the T/C is 92 % of control under setting [1], 56 % of control under setting [2], 65 % of control under setting [3] and 69 % of control under setting [4].
As to `CCN(CC)CCC(=O)OC(C(=O)O[C@H]1C[C@@]2(O)C(OC(=O)c3ccccc3)C3C4(OC(C)=O)COC4C[C@H](O)[C@@]3(C)C(=O)[C@H](OC(C)=O)C(=C1C)C2(C)C)C(NC(=O)c1ccccc1)c1ccccc1` (some centres undefined), the T/C reads like this: (dose: 4.5 mg/kg/injection, schedule: Q01DX009 (ip), vehicle: water) -100 % of control; (dose: 9.0 mg/kg/injection, schedule: Q01DX009 (ip), vehicle: water) -100 % of control; (dose: 18.0 mg/kg/injection, schedule: Q01DX009 (ip), vehicle: water) -100 % of control.
As for `COc1ccc2c(c1)CCn1c(C)c(COC(=O)NC(C)C)c(COC(=O)NC(C)C)c1-2`, for the setting “dose: 75.0 mg/kg/injection, schedule: Q04DX003 (ip), vehicle: distilled water + Tween-80”, the T/C was -29 % of control.
In the case of `C=CC(=O)N1CN(C(=O)C=C)CN(C(=O)C=C)C1`, the T/C is 116 % of control (dose: 6.25 mg/kg/injection, schedule: Q01DX010 (sc), vehicle: saline with Tween-80) and 179 % of control (dose: 12.5 mg/kg/injection, schedule: Q01DX010 (sc), vehicle: saline with Tween-80).

Values taken from PubChem BioAssay AID298 (DTP/NCI, 2004).
